According to patent publication US9423396B2, “Bodipy structure fluorescence probes for diverse biological applications” (National University of Singapore, priority 2011, dated 2016):

Experiment: Spectroscopic measurements (absorption, emission, quantum yield, extinction coefficient)
Type: physicochemical
Settings: BDNCA library; for Abs: absorption; for Flu-Abs: difference emission minus absorption; for ε: extinction coefficient, in M-1 cm-1 (unit assumed); for Flu: fluorescence emission

Row | Structure (SMILES) | Qunt. Yield | Abs [nm] | Flu-Abs | ε | Flu
1 | CC1=CC(/C=C/c2cccc(O)c2)=[N+]2C1=C(c1ccc(NC(=O)CCl)cc1)c1cccn1[B-]2(F)F [BDNCA-105] | 0.06 | 556 | 19 | 38,719 | 575
2 | CCN(CC)c1ccc(/C=C/C2=[N+]3C(=C(c4ccc(NC(=O)CCl)cc4)c4cccn4[B-]3(F)F)C(C)=C2)cc1 [BDNCA-107] | weak | 624 | – | 56,018 | weak
3 | CC1=CC(/C=C/c2c(C)cc(C)cc2C)=[N+]2C1=C(c1ccc(NC(=O)CCl)cc1)c1cccn1[B-]2(F)F [BDNCA-108] | 0.10 | 549 | 33 | 39,542 | 582
4 | COc1ccc(/C=C/c2cc(C)c3n2[B-](F)(F)[N+]2=CC=CC2=C3c2ccc(NC(=O)CCl)cc2)cc1 [BDNCA-110] | 0.16 | 566 | 30 | 56,568 | 596
5 | CC(=O)Nc1ccc(/C=C/C2=[N+]3C(=C(c4ccc(NC(=O)CCl)cc4)c4cccn4[B-]3(F)F)C(C)=C2)cc1 [BDNCA-111] | 0.04 | 570 | 29 | 18,947 | 599
6 | CC(=O)OCCN(CCOC(C)=O)c1ccc(/C=C/C2=[N+]3C(=C(c4ccc(NC(=O)CCl)cc4)c4cccn4[B-]3(F)F)C(C)=C2)cc1 [BDNCA-114] | weak | 608 | – | 42,288 | weak
7 | CC1=CC(/C=C/c2cc(Cl)ccc2O)=[N+]2C1=C(c1ccc(NC(=O)CCl)cc1)c1cccn1[B-]2(F)F [BDNCA-121] | 0.06 | 564 | 21 | 39,817 | 585
8 | CCOc1cccc(/C=C/C2=[N+]3C(=C(c4ccc(NC(=O)CCl)cc4)c4cccn4[B-]3(F)F)C(C)=C2)c1O [BDNCA-126] | 0.01 | 563 | 15 | 37,071 | 578
9 | Cc1cc(/C=C/c2ccccc2OCC(=O)O)n2c1C(c1ccc(NC(=O)CCl)cc1)=C1C=CC=[N+]1[B-]2(F)F [BDNCA-128] | 0.02 | 559 | 25 | 14,554 | 584
10 | CC1=CC(/C=C/c2ccc(O)c([N+](=O)[O-])c2)=[N+]2C1=C(c1ccc(NC(=O)CCl)cc1)c1cccn1[B-]2(F)F [BDNCA-131] | weak | 643 | – | 18,124 | weak
11 | COc1ccc(/C=C/C2=[N+]3C(=C(c4ccc(NC(=O)CCl)cc4)c4cccn4[B-]3(F)F)C(C)=C2)cc1O [BDNCA-132] | 0.02 | 569 | 30 | 36,796 | 599
12 | CC1=CC(/C=C/c2[nH]cnc2C)=[N+]2C1=C(c1ccc(NC(=O)CCl)cc1)c1cccn1[B-]2(F)F [BDNCA-134] | weak | 566 | – | 12,082 | weak
13 | CC1=CC(/C=C/c2ccc(C)o2)=[N+]2C1=C(c1ccc(NC(=O)CCl)cc1)c1cccn1[B-]2(F)F [BDNCA-135] | 0.07 | 577 | 41 | 37,346 | 618
14 | CC1=CC(/C=C/c2ccc3ccccc3c2)=[N+]2C1=C(c1ccc(NC(=O)CCl)cc1)c1cccn1[B-]2(F)F [BDNCA-137] | 0.10 | 564 | 20 | 43,387 | 584
15 | CC1=CC(/C=C/c2ccc3c(c2)OCO3)=[N+]2C1=C(c1ccc(NC(=O)CCl)cc1)c1cccn1[B-]2(F)F [BDNCA-139] | 0.09 | 568 | 39 | 35,423 | 607
16 | CCCOc1ccc(/C=C/c2cc(C)c3n2[B-](F)(F)[N+]2=CC=CC2=C3c2ccc(NC(=O)CCl)cc2)cc1 [BDNCA-140] | 0.07 | 566 | 32 | 27,185 | 598
17 | CC1=CC(/C=C/c2ccccc2C)=[N+]2C1=C(c1ccc(NC(=O)CCl)cc1)c1cccn1[B-]2(F)F [BDNCA-143] | 0.13 | 555 | 22 | 50,801 | 577
18 | COc1cc(OC)c(OC)cc1/C=C/C1=[N+]2C(=C(c3ccc(NC(=O)CCl)cc3)c3cccn3[B-]2(F)F)C(C)=C1 [BDNCA-144] | weak | 585 | – | 62,609 | weak
19 | CC1=CC(/C=C/c2ccc(Cl)cc2Cl)=[N+]2C1=C(c1ccc(NC(=O)CCl)cc1)c1cccn1[B-]2(F)F [BDNCA-147] | 0.07 | 557 | 21 | 23,616 | 578
